Laboratory results: patent US9326996B2, “Use of xenon as neuroprotectant in a neonatal subject” (IMPERIAL INNOVATIONS LIMITED, priority 2004, dated 2016)
Read-outs that look alike come from different tables or passages of the source.

Columns and labels:
[1] = test system: activated caspase-3 in cortex; experiment: Cortical activated caspase-3 immunohistochemistry after anesthetic gas exposure
Procedure: (§1) 7 day old Sprague-Dawley rat pups were placed in individual wells of a custom-built anesthetic chamber, and randomised to groups A-F to receive one of 6 gas combinations for 6 hours. Previous work has established that NMDA receptor antagonists have their maximal neurodegenerative affect 7 days after birth (Ikonomidou et al., 1999).
(§2) Group B received 75% nitrous oxide and 25% oxygen as delivered by a calibrated anesthetic machine, whereas group C received 75% xenon along with 25% oxygen through a customised anesthetic machine modified for xenon delivery (Ohmeda, modified by Air Products, Surrey, UK). Group D were exposed to 25% oxygen along with 0.75% isoflurane. The remaining 2 groups were exposed to combinations of gases—namely 25% oxygen+75% nitrous oxide+0.75% isoflurane (group E) and 25% oxygen+60% xenon+15% nitrogen+0.75% isoflurane (group F). The high cost of xenon precludes its use in an open-circuit, consequently group C and group F received gases using a closed-circuit system, whereas gases for all other groups were delivered in a high-flow open-circuit.
(§3) Rats destined for immunohistochemistry were sacrificed with 100 mg kg^−1 sodium pentobarbital IP immediately post-anesthesia, whereas those rats for DeOlmos silver staining were allowed to recover for 18 hrs before undergoing the same procedure. A thoracotomy was performed, and the aorta cannulated via a needle inserted into the apex of the heart. The pup was then perfused with 10 ml of 1% heparin solution, with the excess solution leaving through an incision in the right atrium. To fix the tissues, 20 ml of 4% paraformaldehyde in 0.1M phosphate buffer was injected by the same transcardial route. The whole brain was then removed and allowed to fix in paraformaldehyde perfusate and refrigerated at 4° C. 24 hours later, the brains were transferred to a solution of 30% sucrose with phosphate buffer and 1% sodium azide, and were kept refrigerated until the brains sank (approximately 48 hours).
(§4) Once processed, a block was cut to safely include the area of interest—a coronal section −3.6 mm from the bregma (FIG. 1B). The blocks were then embedded and frozen into O.C.T. solution. The block was then cut coronally into approximately 120 slices, each 30 μm thick, with a cryostat (Bright Instrument Company Ltd., Huntingdon, UK). The cut sections were transferred to a 6 well plate containing phosphate buffered saline (PBS).
(§5) A random well from each cut block, each containing around 20 representative slices of the total block, was transferred to a marked silk-bottomed well using a 3 ml Pasteur pipette. The sections were then washed in 5 ml of PBS for 5 min on a shaker set at 75 rpm. This washing procedure was repeated twice more, replacing the PBS each time. To quench the sections, they were incubated at room temperature on a shaker for 30 min in a solution comprising 35 ml methanol, 15 ml of PBS and 500 μl of stock 30% H2O2.
The quenching solution was then removed, and the sections washed three times in PBS. Sections were blocked for 60 min at room temperature with 50 ml of PBST (PBS containing 0.5% Triton-X (Promega Corporation, Madison, Wis.)), and 1500 μl of normal goat serum (NGS) (Vector Laboratories Inc., Burlingame, Calif.). For incubation with the primary antibody, the sections were kept overnight at 4° C. on a shaker set at 50 rpm in a solution made up of […] rabbit anti-cleaved caspase-3 antibody (New England Biolabs, Hertfordshire, UK), 50 ml of PBST and 500 μl of NGS. […]

[2] = test system: neuronal glial co-culture; experiment: LDH release after preconditioning and oxygen glucose deprivation, neuronal glial co-culture; type: cell-based, mouse; settings: for LDH release following oxygen glucose deprivation: 2 h preconditioning
Procedure: The pups were anaesthetised with isoflurane and then decapitated with the heads placed immediately into 4° C. HSG solution, an isotonic, high sucrose glucose solution made primarily from Hank's balanced salt solution (HBSS, GibroBRL) enhanced with NaHCO3 (0.04 M), sucrose (0.2 M) and D-Glucose (0.3 M) also containing antibiotic-anti-mycotic solution (AAS, GibroBRL). […] HSG solution.
The brain tissue was then immersed in 0.25% trypsin and was placed in a shaking air chamber for 50 minutes at 37° C. filled with 5% CO2 and 95% room air. DNase was then added to the mixture and placed back into the shaking air chamber for a further 15 minutes. The mixture was then centrifuged at 1600 rpm for 10 minutes at 4° C. and the supernatant was carefully discarded. The cells were then resuspended and then plated at a density of 6.25×10^4 cells/cm^2 on 24-multiwell plates (Costar, Cambridge, Mass.) and cultured in a medium consisting of Eagle's minimum essential medium augmented with 20 mM glucose, 26 mM NaHCO3, 10% foetal bovine serum, 10% heat-inactivated horse serum, AAS (Gibco, Paisley, UK), 2 mM glutamine (Sigma, Poole, UK) and 10 ng/ml murine epidermal growth factor (EGF) (GibcoBRL). Glial cells reached confluence about one week after plating.
Using a similar procedure cortical neuronal cells were obtained from fetal BALB/c mice at 14-16 days of gestation and plated at a density of 1.25×10^5 cells per cm^2 on the confluent monolayer of glial cells derived from the corresponding genetic strain. Neuronal cells reached confluence 10 days after plating.
Sevoflurane was delivered using a vaporiser (Datex-Ohmeda).
The amount of neuronal damage was assessed by the amount of LDH released into the culture medium, using a standardised colorimetric enzyme kit (Sigma, Poole, UK). This technique has been previously described (Wilhelm et al 2002). LDH assessment was performed 16 hours after oxygen glucose deprivation (FIG. 8).

[3] = in vivo; cited from earlier work
pure neuronal cultures = experiment: FACS assessment of necrotic, viable and apoptotic cell populations after preconditioning and oxygen glucose deprivation
Procedure: Neuronal cells were harvested from 19 day old embryonic mice by cesarean section for pregnant BALB/c mice. 6-9 mouse brains were removed from fetal mice and dissected to isolate whole cerebral neocortices devoid of the hippocampus, basal ganglia and meninges. Again throughout the micro dissection process, brain tissues were kept in 4° C. HSG solution. […] The cells were plated at a density of 1.2×10^5 cells, per cm^2 on 24-multiwell plates (Cater, Cambridge, Mass.) and the cultures were maintained at 37° C. in a humidified 5% CO2 environment. Neurobasal Media supplemented with B27, glutamine and AAS was used to resuspend the neuronal cells and as culture medium. For every 10 ml of Neurobasal Media, the following supplements were added: 200 μl B27, 100 μl antibiotic and 25 μl glutamine. Medium replacement for these cells was performed on day 2, 5 and 7 with pre-warmed 37° C. culture medium (Neurobasal Media, B27, Glutamine and AAS). On day 5 after neuronal plating, 100 μl/10 ml cytosine arabinoside (CA hydrochloride, Sigma) was added to the cell cultures to halt non-neuronal cell division. Neuronal cell cultures were ready to use on day 7.
Cells were preconditioned using a purpose built 1.4 liter airtight, temperature controlled gas chambers. The chambers had inlet and outlet valves and an internal electric fan to ensure effective and continuous delivery of gases. Gas flow rate was 100 ml/min, and so chambers were flushed and allowed to equilibrate for 45 minutes before establishing a closed system. Cells were preconditioned for 2 hours inside the closed system with the appropriate gas concentrations using flow meters. Sevoflurane was delivered using a vaporiser (Datex-Ohmeda).
To model ischaemic damage in the brain, neuronal cells were subjected to oxygen glucose deprivation. Twenty four hours after preconditioning cells, cultures were washed twice with HEPES buffer solution (120 mM NaCl, 5.4 mM KCL, 0.8 mM MgCl2, 15 mM glucose and 20 mM HEPES, titrated to pH 7.4 using 1M NaOH). […] The cells were exposed to this anoxic environment for 75 minutes. Oxygen glucose deprivation was terminated by removing the cultures from the gas chamber and changing the media; cultures destined for lactate dehydrogenase (LDH) assay were washed once and replaced with Eagle's minimal essential medium enhanced with 25 mM glucose and 38 mM NaHCO3, whereas pure neuronal cultures for FACS were washed once and replaced with Neurobasal Media supplemented with B27, glutamine and AAS.
Twenty fours hours after oxygen glucose deprivation, cells were stained for FACS analysis. The culture medium was removed and washed twice with HEPES buffer solution. […] Cells were then washed twice with 1×BB, and then 0.8 μg/ml propidium iodide (Sigma-Aldrich, Poole, UK) in 1% fetal bovine serum (FBS) in phosphate buffer solution (PBS) was added and left to incubate on ice for 5 minutes. […] 800 μl 1% FBS in PBS was then added to stop the reaction, cells were removed and added to tubes for centrifugation at 1200 g for 10 minutes. The supernatant was discarded and the cells were re-suspended with 300 μl 1% FBS in PBS. Steps, if possible, were performed on ice to reduce the amount of neuronal death.
A FACSCalibur (Becton Dickinson, Sunnyvale, Calif.) with a single argon laser was used for flow cytometric analysis. […] At least 10,000 cells per sample were analysed.

[4] = test system: activated caspase-3 in hippocampus; experiment: Hippocampal activated caspase-3 immunohistochemistry after anesthetic gas exposure
Procedure: as §1, §2, §3, §4
as §5, with “To quench the sections, they were incubated at room temperature on a shaker for 30 min in a solution comprising 35 ml methanol, 15 ml of PBS and 500 μl of stock 30% H2O2.” left out

[5] = 12.5% xenon, 0.67% sevoflurane or their combination as preconditioning, then oxygen glucose deprivation
[6] = 7 day old Sprague-Dawley rats, 6 h exposure with 25% oxygen, 75% N2O, 75% xenon, 0.75% isoflurane, 75% N2O+0.75% isoflurane, 60% xenon+0.75% isoflurane, air control 19.3±6.4
[7] = Sprague-Dawley, rat, in vivo, 6 h

With `FCOC(C(F)(F)F)C(F)(F)F` [sevoflurane] the “degenerating neurons, positive cells” value ([1]; 1.5% sevoflurane alone, control value 20.0±2, brain region not stated) was 42±2 positive cells, the “concentration producing a significant reduction in LDH release” value ([2]; 2 h preconditioning followed by OGD) was “greater than 1.9%” and the “LDH release following oxygen glucose deprivation” value ([2]; sevoflurane at 0.67%, ineffective) was 97+/−5 % of controls. For the same molecule, the “LDH release following oxygen glucose deprivation” value ([2]; sevoflurane at 1.3%) was 100+/−11 % of controls, the “LDH release following oxygen glucose deprivation” value ([2]; sevoflurane at 2.7%, p<0.05) was 64+/−6 % of control and the “LDH release following oxygen glucose deprivation” value ([2]; sevoflurane at 3.3%, p<0.001) was 37+/−5 % of controls. The “atmosphere sufficient to maintain anesthesia” value [3] was “about 2.5%”, the apoptotic cell population (pure neuronal cultures; [5]) was 17+/−1% and the viable cell population (pure neuronal cultures; [5]) was 9%. For the same molecule, the necrotic cell population (pure neuronal cultures; 12.5% xenon, 0.67% sevoflurane or their combination as preconditioning, then oxygen glucose deprivation, sham 70+/−2%, control 17+/−1%) was 81+/−2%.

For `FC(F)OC(Cl)C(F)(F)F` (centres unmarked) [isoflurane], the “increase in the level of apoptosis in the cortex vs controls” value ([1]; 0.75% isoflurane or 75% N2O+0.75% isoflurane, neonatal rats) was 4 fold, the “number of caspase-3 positive cells in cortex (mean±SD)” value (shortened to “number … in cortex (mean±SD)”) [1, 6] was 76.5±11.4 and the “increase in the level of apoptosis in the hippocampus vs controls” value [4, 7] was 4 fold. The “number of caspase-3 positive cells in hippocampus (mean±SD)” value (from here on “number … in hippocampus (mean±SD)”) [4, 7] was 22.1±9.6.

With `[N-]=[N+]=O` [N2O, nitrous oxide] the “number … in cortex (mean±SD)” value [1, 7] was 22.5±5.9 and the “number … in hippocampus (mean±SD)” value [4, 7] was 3.7±1.4.

In the case of `[Xe]` [xenon], the “number … in cortex (mean±SD)” value [1, 6] is reported as 19.7±9.6, the “number … in hippocampus (mean±SD)” value ([4]; 7 day old Sprague-Dawley rats, 6 h exposure with 25% oxygen, 75% N2O, 75% xenon, 0.75% isoflurane, 75% N2O+0.75% isoflurane, 60% xenon+0.75% isoflurane, controls 5.2±1.8) is reported as 5.0±3.2 and the “LDH release following oxygen glucose deprivation” value ([2]; xenon at 12.5%, not significant) is reported as 83+/−7 % of controls. The “LDH release following oxygen glucose deprivation” value ([2]; xenon at 25%, not significant) was 70+/−11 % of controls, the “LDH release following oxygen glucose deprivation” value ([2]; xenon at 50%, p<0.05) was 55+/−12 % of control values and the “LDH release following oxygen glucose deprivation” value ([2]; xenon at 75%, p<0.05) was 49+/−12 % of control values. For the same molecule, the “atmosphere sufficient to induce or maintain anesthesia” value [3] was “about 70%”, the necrotic cell population (pure neuronal cultures) was 75+/−2% and the apoptotic cell population (pure neuronal cultures; [5]) was 9+/−1%. It also gave a viable cell population (pure neuronal cultures; [5]) of 9%.
